The values below are quoted from earlier work in patent US20220160704A2, “COMPOSITIONS FOR OPIATE AND OPIOID PREVENTION AND REVERSAL, AND METHODS OF THEIR USE” (Torralva Medical Therapeutics LLC, priority 2018, published 2022).

Where a name gives a salt, the structure may show the parent alone. Read-outs that look alike come from different tables or passages of the source. A value given as a limit tells only on which side of the number the result lay.

For data set [1] the following is noted: cited from earlier work.
The conditions of data set [2]: cited from earlier work. The source holds these as a separate data set.
The conditions of data set [3]: cited from earlier work. This is another data set of the same source.
The conditions of data set [4]: cited from earlier work. The source holds these as a separate data set.
For data set [5] the following is noted: cited from earlier work. This is another data set of the same source.
For data set [6] the following is noted: cited from earlier work. The source holds these as a separate data set.
For data set [7] the following is noted: in vivo; cited from earlier work.
The target in the next data set is T1, α-1 1A subtype (Homo sapiens, UniProt P35348).
T1 sequence (P35348 1-466): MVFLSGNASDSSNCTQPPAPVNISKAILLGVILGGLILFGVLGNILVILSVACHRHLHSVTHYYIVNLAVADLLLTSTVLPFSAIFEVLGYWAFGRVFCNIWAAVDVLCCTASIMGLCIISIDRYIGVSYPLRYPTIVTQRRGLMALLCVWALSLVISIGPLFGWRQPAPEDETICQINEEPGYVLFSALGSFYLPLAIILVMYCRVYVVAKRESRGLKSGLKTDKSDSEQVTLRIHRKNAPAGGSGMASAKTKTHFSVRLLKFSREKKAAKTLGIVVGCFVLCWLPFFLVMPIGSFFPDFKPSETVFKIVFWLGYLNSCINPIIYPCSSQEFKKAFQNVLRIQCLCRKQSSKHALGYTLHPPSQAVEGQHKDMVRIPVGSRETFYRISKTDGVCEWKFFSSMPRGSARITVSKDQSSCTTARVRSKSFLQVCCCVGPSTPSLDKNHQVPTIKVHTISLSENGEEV
The settings on record: greater than Prazosin; cited from earlier work.

For data set [8] the following is noted: 25° C.; cited from earlier work.
The conditions of data set [9]: pH 7.4; cited from earlier work.
For data set [10] the following is noted: subcutaneous injection of 10 mg; cited from earlier work.

As to `Cl.Clc1cccc(Cl)c1NC1=NCCN1` [Clondine hydrochloride, 2-(2,6-dichlorophenylamino)-2-imidazoline hydrochloride], in data set [1] (oral), the “Maximum effective daily dose” value is on record as 2.4 mg.

For `COc1cc2nc(N3CCN(C(=O)C4CCCO4)CC3)nc(N)c2cc1OC` (racemic) [TERAZOSIN, (RS)-Piperazine, 1-(4-amino-6,7-dimethoxy-2-quinazolinyl)-4-[(tetra-hydro-2-furanyl)carbonyl]-, monohydrochloride, dihydrate], in [2], the “Solubility in isotonic saline” value is given as “freely soluble” and the Solubility in water result is on record as “freely soluble”. In addition, the Postural hypotension in data set [3] (trial of 600 subjects) is reported as 4%. Further, the Syncope in data set [3] (trial subjects) is on record as 0.6%. Moreover, the “Half-life (in words)” value in data set [4] (in vivo) was “long half-life”.

On to `O=C1CC[C@@]2(O)[C@H]3Cc4ccc(O)c5c4[C@@]2(CCN3CC2CC2)[C@H]1O5` [Naltrexone base anhydrous, morphinan-6-one, 17 (cyclopropylmethyl) 4,5-epoxy3,14-dihydroxy-(5a)], for which, in [2], the “Solubility in ethanol / alcohol” value is “soluble” and the Solubility in water result was “insoluble”.

For `C[N+](C)(C)CCOC(=O)CCC(=O)OCC[N+](C)(C)C` [Succinylcholine], in data set [5] (0.3-1.1 mg/kg), the “Persistence of maximum blockade” value is listed as “about 2 minutes”, the “Time to recovery after maximum blockade” value was 4 to 6 min and the “Time until neuromuscular blockade develops” value is “about 1 minute”. In addition, the “Onset of effect given intramuscularly” value in data set [5] (intramuscular, up to 3 to 4 mg/kg) was 2 to 3 min. In addition, the “Storage stability of solutions” value in data set [6] (refrigeration) is recorded as “lose potency unless refrigerated”. In [1] (human, in vivo), the Bradycardia result was “bradycardia is common in pediatric patients after an initial dose of 1.5 mg/kg”.

Regarding `CNC(C)C(O)c1ccccc1` (stereo not drawn) [Ephedrine, benzenemethanol α-[1-(methylamino)ethyl]-sulfate (2:1) (salt)], the Light stability result in data set [6] (exposure to light) is reported as “darkens on exposure to light”.

In the case of “1 H,5 H-Tropan-3-ol (±)-tropate [Atropine]”, in data set [1] (adults), the “Dose that can produce a paradoxical bradycardia” value is reported as “less than 0.5 mg”.

As to `COc1cc2nc(N3CCN(C(=O)c4ccco4)CC3)nc(N)c2cc1OC.Cl` [PRAZOSIN, 1-(4-amino-6,7-dimethoxy-2-quiazolinyl)-4-(2-furoyl) piperazine], in data set [2], the “Solubility in isotonic saline” value is “slightly soluble” and the Solubility in water result was “slightly soluble”. The “Syncope and symptoms of hypotension, share of subjects” value in data set [3] (1 mg BID/TID up to 20 mg total QD) was 6-12%. In [7], the “Crossing of the blood brain barrier” value is recorded as “ability to cross the blood brain barrier”.

As to `COc1cc2nc(N(C)CCCNC(=O)C3CCCO3)nc(N)c2cc1OC.Cl` (racemic) [ALFUZOSIN, (R,S)—N-[3-[(4-amino-6,7-dimethoxy-2-quinazolinyl)methylamino]propyl]tetrahydro-2-furancarboxamide hydrochloride], in [2], the “Solubility in dichloromethane / methylene chloride” value is given as “practically insoluble”, the “Solubility in ethanol / alcohol” value was “sparingly soluble” and the Solubility in water result is on record as “freely soluble”. In data set [3] (human, in vivo), the Dizziness is listed as 6%, the Hypotension is 0.4% and the Syncope is 0.2%.

For the compound `C=CC[N+]1([C@H]2C[C@H]3[C@@H]4CC[C@H]5C[C@H](O)[C@@H](N6CCOCC6)C[C@]5(C)[C@H]4CC[C@]3(C)[C@H]2OC(C)=O)CCCC1.[Br-]` [rocuronium bromide, 1-[17β-(acetyloxy)-3α-hydroxy-2β-(4-morpholinyl)-5α-androstan-16β-yl]-1-(2-propenyl)pyrroidinium bromide], in data set [5] (initial dose 0.6 mg/kg), the “Time in which most patients have intubation completed” value is at most 2 min; the “Time to maximum blockade in most patients” value is recorded as “less than 3 minutes”; the “Time to neuromuscular block sufficient for intubation (80% block or greater), median (range)” value is 1 (0.4-6) minute(s).

Consider `CCOc1ccccc1OCCN[C@H](C)Cc1ccc(OC)c(S(N)(=O)=O)c1.Cl` [Tamsulosin hydrochloride, (−)-(R)-5-[2-[[2-(o-Ethoxyphenoxy)ethyl]amino]propyl]-2-methoxybenzenesulfon-amide, monohydrochloride], for which, on α-1 1A subtype, the “Binding affinity at the 1A subtype over other α-1 antagonists” value is 12-30 times. Further, the “Incidence of hypotension, syncope, vertigo” value in data set [3] (Dose 0.4-0.8 mg QD) is 0.2%-0.6%. In addition, in [4] (in vivo), the “Half-life (in words)” value is “long half-life”. Further, in [7], the “Crossing of the blood brain barrier” value is “ability to cross the blood brain barrier”.

Consider `CN1CCC[C@H]1c1cccnc1` [Nicotine], for which the Miscibility with water entry in data set [2] (base form) was “miscible with water in its base form between 60 °C and 210 °C”. In addition, the Vapor pressure in [8] is 5.5 Pa. The “Time to reach the brain” value in data set [4] (after inhalation) was 10 to 20 s. Also, the Route of excretion entry in data set [4] (in vivo) was “primarily excreted in urine”. Besides, the “Crossing of the blood brain barrier” value in data set [7] is “crosses the blood-brain barrier”.

For `COc1cc2nc(N3CCN(C(=O)C4COc5ccccc5O4)CC3)nc(N)c2cc1OC` (centres unmarked) [DOXAZOSIN, 1-(4-amino-6,7-dimethoxy-2-quinazolinyl)-4-(1,4benzodioxan-2-ylcarbonyl) piperazine methanesulfonate], the Solubility in acetone entry in [2] (acetone) is on record as “very slightly soluble”. For the same compound, in [2], the “Solubility in dichloromethane / methylene chloride” value is “very slightly soluble”, the “Solubility in ethanol / alcohol” value is recorded as “slightly soluble” and the Solubility in water result is reported as “slightly soluble”. In addition, the Solubility in dimethylformamide result in data set [2] (dimethylformamide) is “soluble”. The Solubility in dimethylsulfoxide entry in data set [2] (dimethylsulfoxide) is recorded as “freely soluble”. The Solubility in methanol entry in data set [2] (methanol) is recorded as “slightly soluble”. In addition, the Solubility in water in data set [2] (25° C.) is reported as 0.8%. Further, the “Half-life (in words)” value in data set [4] (in vivo) is “long half-life”.

As for `CCOC(=O)c1ncn2c1CN(C)C(=O)c1cc(F)ccc1-2` [Flumazenil, ethyl 8-fluoro-5,6-dihydro-5-methyl-6-oxo-4H-imidazo[1,5-a](1,4) benzodiazepine-3-carboxylate], the “Solubility in acidic aqueous solutions” value in data set [2] (acidic aqueous solutions) is “slightly soluble”. Besides, the Solubility in water entry in data set [2] is “insoluble”. In addition, in [9], the “octanol: buffer partition coefficient” value was 14 to 1.

Turning to `CC[C@@H]1C(=O)OC[C@@H]1Cc1cncn1C` [pilocarpine HCl], the Salivation in data set [10] was 1 L.

As for `C=CCN1CC[C@]23c4c5ccc(O)c4O[C@H]2C(=O)CC[C@@]3(O)[C@H]1C5.Cl` [Naloxone hydrochloride, 17-Allyl-4,5α-epoxy-3,14-dihydroxymorphinan-6-one hydrochloride], in data set [2] (chloroform), the Solubility in chloroform result was “practically insoluble”. In data set [2] (dilute acids), the “Solubility in dilute acids” value was “soluble”. Moreover, in data set [2], the “Solubility in ethanol / alcohol” value is given as “slightly soluble” and the Solubility in water result was “soluble”. Besides, the Solubility in ether result in data set [2] (ether / ethyl ether) is on record as “practically insoluble”. For the same compound, the “Solubility in strong alkali” value in data set [2] (strong alkali) was “soluble”.

For `C[C@H](Cc1cc2c(c(C(N)=O)c1)N(CCCO)CC2)NCCOc1ccccc1OCC(F)(F)F` [SILODOSIN], in data set [2], the “Solubility in ethanol / alcohol” value is reported as “freely soluble” and the Solubility in water entry is “very slightly soluble”. The “Solubility in acetic acid” value in [2] (glacial acetic acid / acetic acid) was “very soluble”. In addition, in data set [3] (8 mg QD, study of 897 subjects), the “Dizziness and orthostatic hypotension” value is listed as 3%; the “Syncope, subjects affected / subjects” value was 1/897.
